Test results taken from patent publication US20080207455A1, “5,6-Dialkyl-7-Aminoazolopyrimidines, Their Preparation and Their Use for Controlling Harmful Fungi, and Compositions Comprising These Compounds” (BASF AKTINGESELLSCHAFT, priority 2005, published 2008).

Assays:
Plasmopara viticola = test: Activity against peronospora of grapevines caused by Plasmopara viticola (protective leaf spray, potted vines); type: in vivo; conditions: comparison with the closest prior art, concentration not restated in the table, untreated 100
Procedure: The mixture was then made up to 100 ml with water. This stock solution was diluted with the solvent/emulsifier/water mixture described to the concentration of active compounds stated below. Use example 1—Activity against peronospora of grapevines caused by Plasmopara viticola Leaves of potted vines were sprayed to runoff point with an aqueous suspension comprising 250 ppm of active compound. The next day, the undersides of the leaves were inoculated with an aqueous sporangia suspension of Plasmopara viticola. The vines were then initially placed in a water vapor-saturated chamber at 24° C. for 48 hours and then in a greenhouse at temperatures between 20 and 30° C. for five days. After this time, the plants were once more placed in a humid chamber for 16 hours to accelerate the eruption of sporangiophores. The extent of the development of the infection on the undersides of the leaves was then determined visually.

Row | melting point [°C] | Compound | Infection in % (Plasmopara viticola) [%]
1 | 180 to 181 | CCc1nc2nc(C)nn2c(N)c1CCC(C)CC(C)(C)C (stereo not shown) [Compound I-1, 5-ethyl-2-methyl-6-(3,5,5-trimethylhexyl)-[1,2,4]triazolo[1,5-a]pyrimidin-7-ylamine] | 
2 | 130 to 131 | CCCCCCCCCCc1c(CC)nc2cc(C)nn2c1N [Compound I-4] | 3
3 |  | CCCCCCCCCCc1c(C)nc2cc(C)nn2c1N [Compound 28, reference compound] | 40
